Measured values published in ChEMBL document CHEMBL3045398, “Fungicidal activities of cyflufenamid against various plant-pathogenic fungi” (J Pestic Sci, 2006).
The source made the active and inactive calls. The calls are words filed in the database; no cut-off is given here.

Experiments:
Pyricularia oryzae = experiment: Fungicidal activity against Magnaporthe oryzae assessed as inhibition of mycelial growth measured after 3 to 20 days by agar dilution method; type: functional, organism-based
Oculimacula yallundae = experiment: Fungicidal activity against Oculimacula yallundae assessed as inhibition of mycelial growth measured after 3 to 20 days by agar dilution method; type: functional, organism-based
Phytophthora infestans = experiment: Fungicidal activity against Phytophthora infestans assessed as inhibition of mycelial growth measured after 3 to 20 days by agar dilution method; type: functional, organism-based
Phomopsis = experiment: Fungicidal activity against Phomopsis sp. assessed as inhibition of mycelial growth measured after 3 to 20 days by agar dilution method; type: functional, organism-based
Pestalotia longiseta = experiment: Fungicidal activity against Pestalotia longiseta assessed as inhibition of mycelial growth measured after 3 to 20 days by agar dilution method; type: functional, organism-based, Pestalotiopsis longiseta
Penicillium italicum = experiment: Fungicidal activity against Penicillium italicum assessed as inhibition of mycelial growth measured after 3 to 20 days by agar dilution method; type: functional, organism-based
Monilinia fructicola [1] = experiment: Fungicidal activity against Monilinia fructicola assessed as inhibition of mycelial growth measured after 3 to 20 days by agar dilution method; type: functional, organism-based
Helicobasidium mompa = experiment: Fungicidal activity against Helicobasidium mompa assessed as inhibition of mycelial growth measured after 3 to 20 days by agar dilution method; type: functional, organism-based
[2] = tested on: Blumeria graminis f. sp. tritici; experiment: Fungicidal activity against Blumeria graminis f. sp. tritici on wheat leaves assessed as spore formation measured at 12.5 ppm; type: functional
Monilinia fructicola [3] = experiment: Fungicidal activity against Monilinia fructicola assessed as vacuolated hyphae measured by Transmission electron microscopy; type: functional, organism-based
Monilinia fructicola [4] = experiment: Fungicidal activity against Monilinia fructicola assessed as rounded hyphae and various size vessicles measured by Transmission electron microscopy; type: functional, organism-based
Monilinia fructicola [5] = experiment: Fungicidal activity against Monilinia fructicola assessed as large septa measured by Transmission electron microscopy; type: functional, organism-based
Monilinia fructicola [6] = experiment: Fungicidal activity against Monilinia fructicola assessed as number and shape of mitochondria measured by Transmission electron microscopy relative to untreated control; type: functional, organism-based
[7] = tested on: Blumeria graminis f. sp. tritici; experiment: Fungicidal activity against Blumeria graminis f. sp. tritici on wheat leaves assessed as spore formation measured at 0.2 ppm; type: functional
[8] = tested on: Blumeria graminis f. sp. tritici; experiment: Fungicidal activity against Blumeria graminis f. sp. tritici on wheat leaves assessed as spore formation measured at 0.8 ppm; type: functional
[9] = tested on: Blumeria graminis f. sp. tritici; experiment: Fungicidal activity against Blumeria graminis f. sp. tritici on wheat leaves assessed as spore formation measured at 3.1 ppm; type: functional
[10] = tested on: Blumeria graminis f. sp. tritici; experiment: Fungicidal activity against Blumeria graminis f. sp. tritici on wheat leaves assessed as rate of appressorium formation measured at 0.2 ppm after 76 hr; type: functional
[11] = tested on: Blumeria graminis f. sp. tritici; experiment: Fungicidal activity against Blumeria graminis f. sp. tritici on wheat leaves assessed as rate of appressorium formation measured at 0.8 ppm after 76 hr; type: functional
[12] = tested on: Blumeria graminis f. sp. tritici; experiment: Fungicidal activity against Blumeria graminis f. sp. tritici on wheat leaves assessed as rate of appressorium formation measured at 3.1 ppm after 76 hr; type: functional
[13] = tested on: Blumeria graminis f. sp. tritici; experiment: Fungicidal activity against Blumeria graminis f. sp. tritici on wheat leaves assessed as rate of appressorium formation measured at 12.5 ppm after 76 hr; type: functional
[14] = tested on: Blumeria graminis f. sp. tritici; experiment: Fungicidal activity against Blumeria graminis f. sp. tritici on wheat leaves assessed as rate of appressorium formation measured at 12.5 ppm after 24 hr (reference value: 89.7 +/- 4%); type: functional
[15] = tested on: Blumeria graminis f. sp. tritici; experiment: Fungicidal activity against Blumeria graminis f. sp. tritici on wheat leaves assessed as rate of appressorium formation measured at 12.5 ppm after 12 hr (reference value: 22.3 +/- 10.2%); type: functional
[16] = tested on: Blumeria graminis f. sp. tritici; experiment: Fungicidal activity against Blumeria graminis f. sp. tritici on wheat leaves assessed as rate of appressorium formation measured at 12.5 ppm after 6 hr (reference value: 3.5 +/- 2.5%); type: functional
[17] = tested on: Blumeria graminis f. sp. tritici; experiment: Fungicidal activity against Blumeria graminis f. sp. tritici on wheat leaves assessed as rate of appressorium formation measured at 12.5 ppm after 3 hr (reference value: 1.7 +/- 1.4%); type: functional
[18] = tested on: Blumeria graminis f. sp. tritici; experiment: Fungicidal activity against Blumeria graminis f. sp. tritici on wheat leaves assessed as rate of spore germination measured at 12.5 ppm after 24 hr (reference value: 72.2 +/- 4.2%); type: functional
[19] = tested on: Blumeria graminis f. sp. tritici; experiment: Fungicidal activity against Blumeria graminis f. sp. tritici on wheat leaves assessed as rate of spore germination measured at 12.5 ppm after 12 hr (reference value: 67.4 +/- 8.6%); type: functional
[20] = tested on: Blumeria graminis f. sp. tritici; experiment: Fungicidal activity against Blumeria graminis f. sp. tritici on wheat leaves assessed as rate of spore germination measured at 12.5 ppm after 6 hr (reference value: 49.8 +/- 17.3%); type: functional
[21] = tested on: Blumeria graminis f. sp. tritici; experiment: Fungicidal activity against Blumeria graminis f. sp. tritici on wheat leaves assessed as rate of spore germination measured at 12.5 ppm after 3 hr (reference value: 22.5 +/- 7.6%); type: functional
Verticillium dahliae = experiment: Fungicidal activity against Verticillium dahliae assessed as inhibition of mycelial growth measured after 3 to 20 days by agar dilution method; type: functional, organism-based
Venturia inaequalis = experiment: Fungicidal activity against Venturia inaequalis assessed as inhibition of mycelial growth measured after 3 to 20 days by agar dilution method; type: functional, organism-based
Cytospora ceratosperma = experiment: Fungicidal activity against Valsa ceratosperma assessed as inhibition of mycelial growth measured after 3 to 20 days by agar dilution method; type: functional, organism-based
Trichoderma viride = experiment: Fungicidal activity against Hypocrea rufa assessed as inhibition of mycelial growth measured after 3 to 20 days by agar dilution method; type: functional, organism-based
Parastagonospora nodorum = experiment: Fungicidal activity against Phaeosphaeria nodorum assessed as inhibition of mycelial growth measured after 3 to 20 days by agar dilution method; type: functional, organism-based
Taphrina deformans = experiment: Fungicidal activity against Taphrina deformans assessed as inhibition of mycelial growth measured after 3 to 20 days by agar dilution method; type: functional, organism-based
Sclerotinia sclerotiorum = experiment: Fungicidal activity against Sclerotinia sclerotiorum assessed as inhibition of mycelial growth measured after 3 to 20 days by agar dilution method; type: functional, organism-based
Rosellinia necatrix = experiment: Fungicidal activity against Rosellinia necatrix assessed as inhibition of mycelial growth measured after 3 to 20 days by agar dilution method; type: functional, organism-based
Rhizoctonia solani = experiment: Fungicidal activity against Rhizoctonia solani assessed as inhibition of mycelial growth measured after 3 to 20 days by agar dilution method; type: functional, organism-based
Pythium aphanidermatum = experiment: Fungicidal activity against Pythium aphanidermatum assessed as inhibition of mycelial growth measured after 3 to 20 days by agar dilution method; type: functional, organism-based
[22] = tested on: Blumeria graminis f. sp. tritici; experiment: Fungicidal activity against Blumeria graminis f. sp. tritici on wheat leaves assessed as colony formation measured at 0.2 ppm; type: functional
[23] = tested on: Blumeria graminis f. sp. tritici; experiment: Fungicidal activity against Blumeria graminis f. sp. tritici on wheat leaves assessed as colony formation measured at 0.8 ppm; type: functional
[24] = tested on: Blumeria graminis f. sp. tritici; experiment: Fungicidal activity against Blumeria graminis f. sp. tritici on wheat leaves assessed as colony formation measured at 3.1 ppm; type: functional
[25] = tested on: Blumeria graminis f. sp. tritici; experiment: Fungicidal activity against Blumeria graminis f. sp. tritici on wheat leaves assessed as colony formation measured at 12.5 ppm; type: functional

O=C(Cc1ccccc1)N/C(=N\OCC1CC1)c1c(C(F)(F)F)ccc(F)c1F [CYFLUFENAMID]
EC50 (Pyricularia oryzae): 3 ppm
EC50 (Oculimacula yallundae): > 100 ppm
EC50 (Phytophthora infestans): > 100 ppm
EC50 (Phomopsis): > 100 ppm
EC50 (Pestalotia longiseta): > 100 ppm
EC50 (Penicillium italicum): 7 ppm
EC50 (Monilinia fructicola [1]): 0.01 ppm
EC50 (Helicobasidium mompa): > 100 ppm
inhibition at 12.5 ppm [2]: 100%
Activity (Monilinia fructicola [3]): Active
Activity (Monilinia fructicola [4]): Active
Activity (Monilinia fructicola [5]): Active
Activity (Monilinia fructicola [6]): inactive
inhibition at 0.2 ppm [7]: 97%
inhibition at 0.8 ppm [8]: 100%
inhibition at 3.1 ppm [9]: 100%
inhibition at 0.2 ppm [10]: 77.6%
inhibition at 0.8 ppm [11]: 96.4%
inhibition at 3.1 ppm [12]: 99.4%
inhibition at 12.5 ppm [13]: 100%
Activity [14]: 87.9%
Activity [15]: 28.1%
Activity [16]: 0.4%
Activity [17]: 0.3%
Activity [18]: 61.5%
Activity [19]: 60.7%
Activity [20]: 47.6%
Activity [21]: 19.8%
EC50 (Verticillium dahliae): > 100 ppm
EC50 (Venturia inaequalis): > 100 ppm
EC50 (Cytospora ceratosperma): 8 ppm
EC50 (Trichoderma viride): > 100 ppm
EC50 (Parastagonospora nodorum): > 100 ppm
EC50 (Taphrina deformans): 3 ppm
EC50 (Sclerotinia sclerotiorum): 1 ppm
EC50 (Rosellinia necatrix): 0.7 ppm
EC50 (Rhizoctonia solani): > 100 ppm
EC50 (Pythium aphanidermatum): > 100 ppm
inhibition at 0.2 ppm [22]: 81.2%
inhibition at 0.8 ppm [23]: 96.9%
inhibition at 3.1 ppm [24]: 100%
inhibition at 12.5 ppm [25]: 100%
